# Experimental data as given in PMC6556568, “A surface-exposed GH26 β-mannanase from Bacteroides ovatus: Structure, role, and phylogenetic analysis of BoMan26B” (The Journal of Biological Chemistry, 2019).
# Target: T1, BoMan26B (Bacteroides ovatus, UniProt A0ABU3IS29)
# T1 construct: gene RO706_12620; signal peptide (first 19 residues) removed; recombinant in E. coli BL21(DE3), purified on a HisTrap column; residues 37-361 modelled; catalytic Glu-201 and Glu-291
# T1 sequence (A0ABU3IS29 20-360): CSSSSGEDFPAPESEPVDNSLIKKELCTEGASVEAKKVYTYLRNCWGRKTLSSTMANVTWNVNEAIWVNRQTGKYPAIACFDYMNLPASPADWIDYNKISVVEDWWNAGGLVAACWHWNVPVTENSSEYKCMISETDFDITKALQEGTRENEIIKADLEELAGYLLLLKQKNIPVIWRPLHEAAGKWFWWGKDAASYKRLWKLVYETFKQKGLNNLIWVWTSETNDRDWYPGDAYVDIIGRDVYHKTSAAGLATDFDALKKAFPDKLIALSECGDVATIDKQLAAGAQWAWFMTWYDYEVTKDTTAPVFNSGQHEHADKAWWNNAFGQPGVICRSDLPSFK
# Assay: hydrolysis in H2^[…], MALDI-TOF MS and HPAEC-PAD
# Type: biochemical
# Conditions: 2 mM M6, 1 mM CaCl2, potassium phosphate pH 6.5, 8 °C
smiles,measurement,value
"OC[C@H]1O[C@@H](O[C@H]2[C@H](O)[C@H](O)[C@H](O[C@H]3[C@H](O)[C@H](O)[C@H](O[C@H]4[C@H](O)[C@H](O)[C@H](O[C@H]5[C@H](O)[C@H](O)[C@H](O[C@H]6[C@H](O)[C@H](O)C(O)O[C@@H]6CO)O[C@@H]5CO)O[C@@H]4CO)O[C@@H]3CO)O[C@@H]2CO)[C@@H](O)[C@@H](O)[C@@H]1O (stereo partly shown) [M6, mannohexaose]","hydrolysis in H2^18O, MALDI-TOF MS and HPAEC-PAD",The main hydrolytic events of BoMan26B on M6 result in production of mannose
